Laboratory results taken from US10941157B2, “Pesticidal compositions and uses thereof” (Gilead Apollo, LLC, priority 2015, dated 2021).
Converted amounts (≈) assume the structure as drawn. Read-outs that look alike come from different tables or passages of the source.

Legend:
Sphaerotheca fuliginea = test: Foliar protection for cucumber powdery mildew control; format: in vivo; conditions: foliar spray on Cucumis sativus cv. Straight Eight, inoculated 24 hours after treatment, evaluated 7 days later
Description: Plants (Cucumis sativus cv. Straight Eight) were grown for 10 days in 2.5-inch square pots containing Metromix 200 medium amended with fertilizer. For propagation, plants were maintained in a growth chamber at conditions of 23 to 27° C., 16 hour light cycle, ambient humidity, and with sub-irrigation as needed. After inoculation with the pathogen of Sphaerotheca fuliginea, plants were kept at conditions of 23 to 27° C., 16 hour light cycle, 60% relative humidity, and with sub-irrigation as needed to facilitate infection and disease development. […] An atomizer was used for applying the solution onto both sides of the leaves until thoroughly wetted. […] At 24 hours after treatment, the plants were moved to a cooler chamber and inoculated by shaking well-colonized, untreated stock plants above the treated plants. This allowed producing a settling cloud of spores and resulting in uniform infection. Inoculated plants were kept near other sporulating stock plants to allow for infection of newly emerging leaves. Efficacy was evaluated in 7 days later by examining leaves for colonization and growth of mildew. Table 5 lists the results of cucumber powdery mildew control at a compound concentration of 10 ppm or lower.

[1] = test system: Phytophthora capsici (Pc); test: In vitro pathogen growth inhibition assay, Pc; format: cell-based; conditions: 48 h
Outline: (§1)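 Value reported is the compound concentration reaching ≥90% growth inhibition, from OD readings at 24 and 48 h after blank subtraction, confirmed visually. Inoculum was spores diluted in 17% V8 medium, except Rs, using 1.5 mm mycelial plugs in ¼ PDB; actual compound concentration corrected via OD600.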

Phakopsora pachyrhizi = test: Foliar protection test for Asian soybean rust control; format: in vivo; conditions: foliar application to soybean (Glycine max AG4832), percent disease area evaluated 14 days later
[2] = test system: Fusarium moniliforme (Fm); test: In vitro pathogen growth inhibition assay, Fm; format: cell-based; conditions: Fusarium verticillioides
Outline: as §1

Puccinia triticina = test: Foliar protection test for wheat leaf rust control; format: in vivo; conditions: foliar application to wheat (Triticum aestivum cv. Winterhawk), evaluated 10 days later
Diplodia maydis (Dm) = test: In vitro pathogen growth inhibition assay, Dm; format: cell-based; conditions: Stenocarpella maydis, 48 h
Outline: as §1

Fusarium graminearum = format: in vivo; conditions: spray on flowering Triticum aestivum cv. Samson, inoculated 24 hours after treatment, evaluated 14 days later
[3] = test system: Collectotrichum graminicola (Cg); test: In vitro pathogen growth inhibition assay, Cg; format: cell-based; conditions: 48 h
Outline: as §1

Rhizoctonia solani (Rs) = test: In vitro pathogen growth inhibition assay, Rs (mycelial plugs); format: cell-based; conditions: Rhizoctonia solani, 48 h, mycelial plugs
Outline: as §1

Botrtyis cinerea (Bc) = test: In vitro pathogen growth inhibition assay, Bc; format: cell-based; conditions: 48 h
Outline: as §1

[4] = test system: Fusarium virguliforme (Fv); test: In vitro pathogen growth inhibition assay, Fv; format: cell-based
Outline: as §1

Septoria tritici (St) = test: In vitro pathogen growth inhibition assay, St; format: cell-based; conditions: Zymoseptoria tritici, 48 h
Outline: as §1

[5] = test system: Mycosphaerella graminicola (synthetic Septoria tritici); test: Foliar protection test for wheat septoria leaf blotch control; format: in vivo; conditions: foliar spray on Triticum aestivum cv. WinterHawk, inoculated 1 hour after treatment, evaluated 16 days later
[6] = test system: Blumeria graminis f. sp. hordei; test: Foliar protection test for barley powdery mildew control; format: in vivo; conditions: foliar spray on Hordeum vulgare cv. Perry, inoculated 24 hours after treatment, evaluated 7 days later
Description: Plants (Hordeum vulgare cv. Perry) were grown for 6 days in 2-inch square pots containing Metromix 200 medium amended with fertilizer. […] After inoculation with the pathogen of Blumeria graminis f. sp. hordei, plants were kept at conditions of 20 to 22° C., 70% relative humidity, and 200 uM of light to facilitate infection and disease development. […] An atomizer was used for applying the solution onto both sides of the leaves until thoroughly wetted. […] At 24 hours after treatment, the plants were moved to a cooler chamber and inoculated by shaking well-colonized, untreated stock plants above the treated plants. This allowed producing a settling cloud of spores and resulting in uniform infection. Efficacy was evaluated in 7 days later by examining leaves for colonization and growth of mildew. Table 4 lists the results of barley powdery mildew control at a compound concentration of 10 ppm or lower.

[7] = ≥90% inhibition, 48 hours vs 2% DMSO control, read-out: Compound Concentration (ppm) sufficient for ≥90% inhibition of growth, Pc
[8] = ≥90% inhibition, 48 hours vs 2% DMSO control, read-out: Compound Concentration (ppm) sufficient for ≥90% inhibition of growth, Fm
[9] = ≥90% inhibition, 48 hours vs 2% DMSO control, read-out: Compound Concentration (ppm) sufficient for ≥90% inhibition of growth, Dm
[10] = ≥90% inhibition, 48 hours vs 2% DMSO control, read-out: Compound Concentration (ppm) sufficient for ≥90% inhibition of growth, Cg
[11] = ≥90% inhibition, 48 hours vs 2% DMSO control, read-out: Compound Concentration (ppm) sufficient for ≥90% inhibition of growth, Rs
[12] = ≥90% inhibition, 48 hours vs 2% DMSO control, read-out: Compound Concentration (ppm) sufficient for ≥90% inhibition of growth, Bc
[13] = ≥90% inhibition, 48 hours vs 2% DMSO control, read-out: Compound Concentration (ppm) sufficient for ≥90% inhibition of growth, Fv
[14] = ≥90% inhibition, 48 hours vs 2% DMSO control, read-out: Compound Concentration (ppm) sufficient for ≥90% inhibition of growth, St

Compound	Cucumber Powdery Mildew Control at a compound concentration of 10 ppm or lower (Sphaerotheca fuliginea)	IC90 [1, 7] [µg/mL]	Asian Soybean Rust Control at a compound concentration of 25 ppm or lower (Phakopsora pachyrhizi)	IC90 [2, 8] [µg/mL]	Wheat Leaf Rust Control at a compound concentration of 10 ppm or lower (Puccinia triticina)	IC90 (Diplodia maydis (Dm); [9]) [µg/mL]	Wheat Fusarium Head Blight Control at a compound concentration of 25 ppm or lower (Fusarium graminearum)	IC90 [3, 10] [µg/mL]	IC90 (Rhizoctonia solani (Rs); [11]) [µg/mL]	IC90 (Botrtyis cinerea (Bc); [12]) [µg/mL]	IC90 [4, 13] [µg/mL]	IC90 (Septoria tritici (St); [14]) [µg/mL]	Septoria Leaf Blotch Control at a compound concentration of 25 ppm or lower [5]	Barley Powdery Mildew Control at a compound concentration of 10 ppm or lower [6]	other results
COc1ccc(F)cc1[C@H](Cn1c(=O)n([C@H](C)C(=O)NC2CCC2)c(=O)c2c(C)c(-n3nccn3)sc21)OCCO [Compound I-092, (R)—N-cyclobutyl-2-(1-((R)-2-(5-fluoro-2-methoxyphenyl)-2-(2-hydroxyethoxy)ethyl)-5-methyl-2,4-dioxo-6-(2H-1,2,3-triazol-2-yl)-1,4-dihydrothieno[2,3-d]pyrimidin-3(2H)-yl)propanamide]	AA (≥85% control of cucumber powdery mildew)	2 (≈ 3.41 µM)	B (from 50 to 69% control of Asian soybean rust)	0.08 (≈ 0.136 µM)	AA (≥85% control of wheat leaf rust)	0.4 (≈ 0.682 µM)	C (from 25 to 49% control of wheat fusarium head blight)	0.08 (≈ 0.136 µM)	0.08 (≈ 0.136 µM)	0.4 (≈ 0.682 µM)	> 0.4	≥ 2	B (from 50 to 69% control of wheat septoria leaf blotch)	C (from 25 to 49% control of barley powdery mildew)	
COCCCO[C@@H](Cn1c(=O)n([C@H](C)C(=O)NC(C)C)c(=O)c2c(C)c(-n3nccn3)sc21)c1cc(F)ccc1OC [Compound I-094, (R)-2-(1-((R)-2-(5-fluoro-2-methoxyphenyl)-2-(3-methoxypropoxy)ethyl)-5-methyl-2,4-dioxo-6-(2H-1,2,3-triazol-2-yl)-1,4-dihydrothieno[2,3-d]pyrimidin-3 (2H)-yl)-N-isopropylpropanamide]	AA (≥85% control of cucumber powdery mildew)	> 50	C (from 25 to 49% control of Asian soybean rust)	0.08 (≈ 0.133 µM)	C (from 25 to 49% control of wheat leaf rust)	> 0.4	A (from 70% to 84% control of wheat fusarium head blight)	0.08 (≈ 0.133 µM)	0.08 (≈ 0.133 µM)	0.08 (≈ 0.133 µM)	0.08 (≈ 0.133 µM)	≥ 10	A (from 70% to 84% control of wheat septoria leaf blotch)	AA (≥85% control of barley powdery mildew)	
COc1ccc(F)cc1[C@H](Cn1c(=O)n([C@@H](C)C(=O)NC(C)C)c(=O)c2c(C)c(-n3nccn3)sc21)OCCO [Compound I-096, (S)-2-(1-((R)-2-(5-fluoro-2-methoxyphenyl)-2-(2-hydroxyethoxy)ethyl)-5-methyl-2,4-dioxo-6-(2H-1,2,3-triazol-2-yl)-1,4-dihydrothieno[2,3-d]pyrimidin-3 (2H)-yl)-N-isopropylpropanamide]	AA (≥85% control of cucumber powdery mildew)	2 (≈ 3.48 µM)	A (from 70% to 84% control of Asian soybean rust)	0.08 (≈ 0.139 µM)	A (from 70% to 84% control of wheat leaf rust)	0.4 (≈ 0.696 µM)	D (<25% control of wheat fusarium head blight)	0.08 (≈ 0.139 µM)	0.08 (≈ 0.139 µM)	2 (≈ 3.48 µM)	2 (≈ 3.48 µM)	≥ 2	B (from 50 to 69% control of wheat septoria leaf blotch)	B (from 50 to 69% control of barley powdery mildew)	
COCCO[C@@H](Cn1c(=O)n([C@H](C)C(=O)NC(C)C)c(=O)c2c(C)c(-n3nccn3)sc21)c1cc(F)ccc1OC [Compound I-171, (R)-2-(1-((R)-2-(5-fluoro-2-methoxyphenyl)-2-(2-methoxyethoxy)ethyl)-5-methyl-2,4-dioxo-6-(2H-1,2,3-triazol-2-yl)-1,4-dihydrothieno[2,3-d]pyrimidin-3 (2H)-yl)-N-isopropylpropanamide]	AA (≥85% control of cucumber powdery mildew)		A (from 70% to 84% control of Asian soybean rust)		B (from 50 to 69% control of wheat leaf rust)		C (from 25 to 49% control of wheat fusarium head blight)						AA (≥85% control of wheat septoria leaf blotch)	AA (≥85% control of barley powdery mildew)	IC90 ([1]; ≥90% growth inhibition, 48 hours, vs 2% DMSO control, read-out: Compound Concentration (ppm) sufficient for ≥90% inhibition of Pc): ≥ 10 µg/mL; IC90 ([2]; ≥90% growth inhibition, 48 hours, vs 2% DMSO control, read-out: Compound Concentration (ppm) sufficient for ≥90% inhibition of Fm): 0.08 µg/mL (≈ 0.136 µM); IC90 (Diplodia maydis (Dm); ≥90% growth inhibition, 48 hours, vs 2% DMSO control, read-out: Compound Concentration (ppm) sufficient for ≥90% inhibition of Dm): 0.08 µg/mL (≈ 0.136 µM); IC90 ([3]; ≥90% growth inhibition, 48 hours, vs 2% DMSO control, read-out: Compound Concentration (ppm) sufficient for ≥90% inhibition of Cg): 0.08 µg/mL (≈ 0.136 µM); IC90 (Rhizoctonia solani (Rs); ≥90% growth inhibition, 48 hours, vs 2% DMSO control, read-out: Compound Concentration (ppm) sufficient for ≥90% inhibition of Rs): 0.08 µg/mL (≈ 0.136 µM); IC90 (Botrtyis cinerea (Bc); ≥90% growth inhibition, 48 hours, vs 2% DMSO control, read-out: Compound Concentration (ppm) sufficient for ≥90% inhibition of Bc): 0.08 µg/mL (≈ 0.136 µM); IC90 ([4]; ≥90% growth inhibition, 48 hours, vs 2% DMSO control, read-out: Compound Concentration (ppm) sufficient for ≥90% inhibition of Fv): ≥ 0.4 µg/mL; IC90 (Septoria tritici (St); ≥90% growth inhibition, 48 hours, vs 2% DMSO control, read-out: Compound Concentration (ppm) sufficient for ≥90% inhibition of St): ≥ 2 µg/mL
